Like-named read-outs stand apart in the source and are kept apart here.
Legend:
Assay type in all cases: in vivo
Lindernia pyxidaria [1] = test: Test Example 1: herbicidal effect test by soil application in paddy rice; conditions: 336 h, 120 g active ingredient per 10 ares, applied immediately after sowing, flooded pots, 14 days after application, read-out: weed inhibition rate
Outline: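 Pre-emergence test in puddled, flooded paddy soil (about 3 cm water), 30 seeds per weed sown at 0–1 cm depth in a glass greenhouse. Emulsifiable concentrate diluted in water and dropped onto the pots straight after sowing at 120 g a.i. per 10 ares. Weed inhibition (%) scored at 14 days, in duplicate.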

[2] = tested on: Echinochloa crus-galli var. formosensis at the three-leaf stage; test: Comparative Example: herbicidal effect test by application during growth period of paddy rice (three-leaf stage, Table 7); conditions: 504 h, active ingredient 7.5 g per 10 ares, emulsifiable concentrate applied by dropper to flooded pots, 21 days after chemical application, triplicate, read-out: Weed inhibition rate (%)
Protocol: As an example, the herbicidal effect on Echinochloa crus-galli var. formosensis at the three-leaf stage was confirmed by the following method, and the results are specifically shown in Table 7 as a comparative example.
Wagner pots with an area of […] were filled with paddy soil, followed by addition of water and incorporation of chemical fertilizer (N:P:K = 16:16:16), after which puddling was performed. After that, 30 seeds of Echinochloa crus-galli var. formosensis were sown at a depth of 0 cm to 1 cm. Immediately after sowing, the pots were flooded and a water depth of approximately 3 cm was maintained. Subsequent management was conducted in a glass greenhouse. When Echinochloa crus-galli var. formosensis reached the three-leaf stage, an emulsifiable concentrate prepared according to Formulation Example 5 using the compound shown below was diluted with water, and a specified amount of the diluted solution was applied by dropper. The amount of the active ingredient to be applied was equivalent to 7.5 g per 10 ares. The test was conducted in triplicate for each chemical concentration group, and the weed inhibition rate (%) was determined 21 days after chemical application using the following formula (Math. 1).

Chenopodium album [3] = test: Test Example 4: herbicidal effect test by stem and leaf treatment in upland field; conditions: 120 g per 10 ares, sprayed seven days after sowing, upland soil, 14 days after application, read-out: weed inhibition rate
Amaranthus viridis [4] = test: Test Example 7: herbicidal effect test by soil application in upland field (low dose); conditions: read-out: weed inhibition rate
Amaranthus viridis [5] = test: Test Example 4: herbicidal effect test by stem and leaf treatment in upland field; conditions: 120 g per 10 ares, sprayed seven days after sowing, upland soil, 14 days after application, read-out: weed inhibition rate
Outline: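 Post-emergence spray, 7 days after sowing: diluted emulsifiable concentrate at 100 liters per 10 ares delivering 120 g active ingredient per 10 ares. Weeds grown from seed mixed into the top 1 cm of alluvial loam. Inhibition (%) by formula at 14 days; duplicates.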

Chenopodium album [6] = test: Test Example 8: herbicidal effect test by stem and leaf treatment in upland field (low dose); conditions: 7.5 g per 10 ares, sprayed seven days after sowing, upland soil, 14 days after application, read-out: weed inhibition rate
Outline: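 A low application rate of 7.5 g active ingredient per 10 ares is sprayed as a water-diluted emulsifiable concentrate onto pots seven days after sowing. Herbicidal effect is expressed as weed inhibition rate (%) 14 days after treatment, with two replicates.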

Lindernia pyxidaria [7] = test: Test Example 5: herbicidal effect test by soil application in paddy rice (low dose); conditions: 336 h, 7.5 g per 10 ares, applied immediately after sowing, flooded pots, 14 days after application, read-out: weed inhibition rate
Outline: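 Pots of puddled, fertilized paddy soil receive 30 seeds per species at 0–1 cm depth and are flooded to about 3 cm. The diluted emulsifiable concentrate is then dropped onto the water, delivering 7.5 g active ingredient per 10 ares. Greenhouse grown; herbicidal effect scored 14 days later, two replicates.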

[8] = 7.5 g per 10 ares, sprayed one day after sowing, upland soil, 14 days after application

In the case of `COC1(OC)C[C@]2(C)O[C@@]1(C(C)C)C[C@H]2OCc1ccccc1F` [1-935, (1R,4S,5R)-5-((2-fluorobenzyl)oxy)-1-isopropyl-2,2-dimethoxy-4-methyl-7-oxabicyclo[2.2.1]heptane], the pest or weed control at 1200 g/ha (Lindernia pyxidaria [1]) is reported as ≥ 80%.
`Cc1ccccc1CO[C@@H]1C[C@]2(C(C)C)O[C@@]1(C)CC2C` (stereo partly drawn) [1-83, (1S,2R,4R)-4-isopropyl-1,5-dimethyl-2-((2-methylbenzyl)oxy)-7-oxabicyclo[2.2.1]heptane] was tested, and the inhibition at 75 g/ha [2] was 99% and the inhibition at 1200 g/ha (Chenopodium album [3]) was ≥ 80%.
With `Cc1ccccc1CO[C@@H]1C[C@@]2(C(C)C)C=C[C@]1(C)O2` [3-2, (1R,4S,5R)-4-methyl-5-[(2-methylphenyl)methoxy]-1-isopropyl-7-oxabicyclo[2.2.1]hept-2-ene] the inhibition at 75 g/ha (Amaranthus viridis [4]; [8]) was ≥ 80%.
`CC(C)[C@]12C[C@@H](OCc3ccc(F)cc3)[C@](C)(CC1=O)O2` [2-349, (1R,4S,5R)-5-((4-fluorobenzyl)oxy)-1-isopropyl-4-methyl-7-oxabicyclo[2.2.1]heptan-2-one] was tested, and the pest or weed control at 1200 g/ha (Lindernia pyxidaria [1]) was ≥ 80% and the inhibition at 1200 g/ha (Amaranthus viridis [5]) was ≥ 80%.
In the case of `CC(C)[C@]12C[C@@H](OCc3ccccc3C#N)[C@](C)(C[C@@H]1Br)O2` [1-703, 2-[[(1S,2R,4R,5S)-5-bromo-1-methyl-4-isopropyl-7-oxabicyclo[2.2.1]heptan-2-yl]oxymethyl]benzonitrile], the pest or weed control at 1200 g/ha (Lindernia pyxidaria [1]) is reported as ≥ 80%.
With `C=C1C[C@]2(C)O[C@@]1(C(C)C)C[C@H]2OCc1ccccc1F` [2-88, (1R,4S,5R)-5-((2-fluorobenzyl)oxy)-1-isopropyl-4-methyl-2-methylene-7-oxabicyclo[2.2.1]heptane] the inhibition at 75 g/ha (Amaranthus viridis [4]; [8]) was ≥ 80%, the inhibition at 75 g/ha [2] was 80% and the pest or weed control at 1200 g/ha (Lindernia pyxidaria [1]) was ≥ 80%. For the same molecule, the inhibition at 75 g/ha (Chenopodium album [6]) was ≥ 80% and the inhibition at 1200 g/ha (Chenopodium album [3]) was ≥ 80%.
In the case of `Cc1ccccc1CO[C@@H]1C[C@]2(C(C)C)O[C@@]1(C)C[C@@H]2Br` [1-16, (1S,2R,4R,5S)-5-bromo-1-methyl-2-[(2-methylphenyl)methoxy]-4-isopropyl-7-oxabicyclo[2.2.1]heptane], the pest or weed control at 1200 g/ha (Lindernia pyxidaria [1]) is reported as ≥ 80%.
Molecule `C=CCO[C@H]1C[C@]2(C)O[C@@]1(C(C)C)C[C@H]2OCc1ccccc1F` [1-1602, (1S,2R,4R,5S)-2-[(2-fluorophenyl)methoxy]-1-methyl-4-isopropyl-5-prop-2-enoxy-7-oxabicyclo[2.2.1]heptane] has an inhibition at 75 g/ha [2] of 82%.
In the case of `CC(C)[C@]12C[C@@H](OCc3cccc(F)c3)[C@](C)(CC1=O)O2` [2-351, (1R,4S,5R)-5-((3-fluorobenzyl)oxy)-1-isopropyl-4-methyl-7-oxabicyclo[2.2.1]heptan-2-one], the pest or weed control at 1200 g/ha (Lindernia pyxidaria [1]) is reported as ≥ 80% and the inhibition at 1200 g/ha (Chenopodium album [3]) is reported as ≥ 80%.
For `CC(C)[C@]12C[C@@H](OCc3ccccc3F)[C@](C)(C[C@@H]1OCc1ccccc1F)O2` [1-603, (1S,2R,4R,5S)-2,5-bis[(2-fluorophenyl)methoxy]-1-methyl-4-isopropyl-7-oxabicyclo[2.2.1]heptane], the inhibition at 75 g/ha (Lindernia pyxidaria [7]) was ≥ 80%, the pest or weed control at 1200 g/ha (Lindernia pyxidaria [1]) was ≥ 80% and the inhibition at 1200 g/ha (Chenopodium album [3]) was ≥ 80%.
`Cc1ccccc1CO[C@@H]1C[C@]2(C(C)C)O[C@@]1(C)C[C@@H]2I` [1-741, (1S,2R,4R,5S)-5-iodo-1-methyl-2-[(2-methylphenyl)methoxy]-4-isopropyl-7-oxabicyclo[2.2.1]heptane] was tested, and the inhibition at 75 g/ha (Lindernia pyxidaria [7]) was ≥ 80% and the pest or weed control at 1200 g/ha (Lindernia pyxidaria [1]) was ≥ 80%.
`CC(C)[C@]12C[C@@H](OCc3ccccc3F)[C@](C)(C/C1=N\O)O2` [2-197, (1R,4S,5R,E)-5-((2-fluorobenzyl)oxy)-1-isopropyl-4-methyl-7-oxabicyclo[2.2.1]heptan-2-one oxime] was tested, and the pest or weed control at 1200 g/ha (Lindernia pyxidaria [1]) was ≥ 80% and the inhibition at 1200 g/ha (Amaranthus viridis [5]) was ≥ 80%.
`CCO[C@H]1C[C@]2(C)O[C@@]1(C(C)C)C[C@H]2OCc1ccccc1F` [1-183, (1S,2R,4R,5S)-5-ethoxy-2-[(2-fluorophenyl)methoxy]-1-methyl-4-isopropyl-7-oxabicyclo[2.2.1]heptane] gave an inhibition at 75 g/ha [2] of 93%.
For `CCC1C[C@]2(C)O[C@@]1(C(C)C)C[C@H]2OCc1ccccc1F` (stereo partly drawn) [1-126, (1R,4S,5R)-2-ethyl-5-[(2-fluorobenzyl)oxy]-1-isopropyl-4-methyl-7-oxabicyclo[2.2.1]heptane], the inhibition at 75 g/ha [2] was 100%.
For `Cc1cccc(C)c1CO[C@@H]1C[C@]2(C(C)C)O[C@@]1(C)CC2=O` [2-5, (1R,4S,5R)-5-((2,6-dimethylbenzyl)oxy)-1-isopropyl-4-methyl-7-oxabicyclo[2.2.1]heptan-2-one], the inhibition at 75 g/ha (Lindernia pyxidaria [7]) was ≥ 80% and the pest or weed control at 1200 g/ha (Lindernia pyxidaria [1]) was ≥ 80%.
`CC(C)[C@]12C[C@@H](OCc3ccccc3F)[C@](C)(C[C@@H]1F)O2` [1-5, (1R,2S,4S,5R)-2-fluoro-5-((2-fluorobenzyl)oxy)-1-isopropyl-4-methyl-7-oxabicyclo[2.2.1]heptane] was tested, and the inhibition at 75 g/ha [2] was 100% and the inhibition at 1200 g/ha (Chenopodium album [3]) was ≥ 80%.
`CC(C)[C@]12C[C@@H](OCc3ccccc3Br)[C@](C)(C[C@@H]1Br)O2` [1-694, (1S,2R,4R,5S)-5-bromo-2-[(2-bromophenyl)methoxy]-1-methyl-4-isopropyl-7-oxabicyclo[2.2.1]heptane] was tested, and the inhibition at 75 g/ha (Amaranthus viridis [4]; [8]) was ≥ 80%.
With `Cc1ccccc1CO[C@@H]1C[C@]2(C(C)C)O[C@@]1(C)C/C2=N\O` [2-191, (1R,4S,5R,E)-1-isopropyl-4-methyl-5-((2-methylbenzyl)oxy)-7-oxabicyclo[2.2.1]heptan-2-one oxime] the inhibition at 1200 g/ha (Amaranthus viridis [5]) was ≥ 80%.
With `CC(C)[C@]12C[C@@H](OCc3c(F)cccc3F)[C@](C)(C[C@@H]1Br)O2` [1-21, (1S,2R,4R,5S)-5-bromo-2-[(2,6-difluorophenyl)methoxy]-1-methyl-4-isopropyl-7-oxabicyclo[2.2.1]heptane] the inhibition at 75 g/ha [2] was 93%.
With `CC(C)[C@]12C[C@@H](OCc3ccccc3F)[C@](C)(C[C@@H]1I)O2` [1-753, (1S,2R,4R,SS)-2-[(2-fluorophenyl)methoxy]-5-iodo-1-methyl-4-isopropyl-7-oxabicyclo[2.2.1]heptane] the inhibition at 75 g/ha (Amaranthus viridis [4]; soil) was ≥ 80% and the inhibition at 75 g/ha [2] was 93%.
`Cc1ccccc1CO[C@@H]1C[C@]2(C(C)C)O[C@@]1(C)CC2=O` [2-3, (1R,4S,5R)-1-isopropyl-4-methyl-5-((2-methylbenzyl)oxy)-7-oxabicyclo[2.2.1]heptan-2-one] was tested, and the pest or weed control at 1200 g/ha (Lindernia pyxidaria [1]) was ≥ 80% and the inhibition at 1200 g/ha (Chenopodium album [3]) was ≥ 80%.
`CC(C)[C@]12C[C@@H](OCc3c(F)cccc3F)[C@](C)(C[C@@H]1F)O2` [1-7, (1S,2R,4R,5S)-2-((2,6-difluorobenzyl)oxy)-5-fluoro-4-isopropyl-1-methyl-7-oxabicyclo[2.2.1]heptane] was tested, and the inhibition at 75 g/ha (Amaranthus viridis [4]; [8]) was ≥ 80%, the inhibition at 75 g/ha [2] was 100% and the pest or weed control at 1200 g/ha (Lindernia pyxidaria [1]) was ≥ 80%. The inhibition at 1200 g/ha (Chenopodium album [3]) was ≥ 80%.
With `C=C1C[C@]2(C)O[C@@]1(C(C)C)C[C@H]2OCc1ccccc1C` [2-72, (1R,4S,5R)-1-isopropyl-4-methyl-5-((2-methylbenzyl)oxy)-2-methylene-7-oxabicyclo[2.2.1]heptane] the inhibition at 75 g/ha (Amaranthus viridis [4]; [8]) was ≥ 80%, the pest or weed control at 1200 g/ha (Lindernia pyxidaria [1]) was ≥ 80% and the inhibition at 75 g/ha (Chenopodium album [6]) was ≥ 80%. The inhibition at 1200 g/ha (Chenopodium album [3]) was ≥ 80%.
Molecule `CC(C)[C@]12C[C@@H](OCc3ccccc3)[C@](C)(C[C@@H]1Br)O2` [1-15, (1S,2R,4R,5S)-5-bromo-1-methyl-2-phenylmethoxy-4-isopropyl-7-oxabicyclo[2.2.1]heptane] has an inhibition at 75 g/ha [2] of 80%.
In the case of `CC(C)[C@]12C[C@@H](OCc3ccccc3F)[C@](C)(CC1C)O2` (stereo partly drawn) [1-92, (1S,2R,4R)-2-((2-fluorobenzyl)oxy)-4-isopropyl-1,5-dimethyl-7-oxabicyclo[2.2.1]heptane], the inhibition at 75 g/ha [2] is reported as 100%, the inhibition at 75 g/ha (Chenopodium album [6]) is reported as ≥ 80% and the inhibition at 1200 g/ha (Chenopodium album [3]) is reported as ≥ 80%. The inhibition at 1200 g/ha (Amaranthus viridis [5]) was ≥ 80%.
`CC(C)[C@]12C[C@@H](OCc3c(F)cccc3F)[C@](C)(CC1C)O2` (stereo partly drawn) [1-111, (1S,2R,4R)-2-((2,6-difluorobenzyl)oxy)-4-isopropyl-1,5-dimethyl-7-oxabicyclo[2.2.1]heptane] showed an inhibition at 75 g/ha [2] of 100%.
With `CC(C)[C@]12C[C@@H](OCc3ccccc3F)[C@](C)(C[C@@H]1Br)O2` [1-19, (1S,2R,4R,5S)-5-bromo-2-[(2-fluorophenyl)methoxy]-1-methyl-4-isopropyl-7-oxabicyclo[2.2.1]heptane] the inhibition at 75 g/ha [2] was 88%, the pest or weed control at 1200 g/ha (Lindernia pyxidaria [1]) was ≥ 80% and the inhibition at 1200 g/ha (Chenopodium album [3]) was ≥ 80%.

Source: patent EP4707280A1, “1,4-CINEOLE DERIVATIVE AND INTERMEDIATE THEREOF, HERBICIDE CONTAINING SAID DERIVATIVE AS ACTIVE INGREDIENT, METHOD FOR USING HERBICIDE, AND METHOD FOR PREPARING AGROCHEMICAL COMPOSITION” (HOKKO CHEMICAL INDUSTRY CO., LTD., priority 2023, dated 2024)
